Test results published in ChEMBL document CHEMBL1201862, “PubChem BioAssay data set” (2004).
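Each compound was tested at five concentrations against cells in 96-well plates for 48 hours. GI50 is the concentration that inhibits growth by half.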 The source made the active and inactive calls. Cut-off read from the data, not from the text of the source: active = GI50 up to about 1.1 µM and inactive = higher.

Assays:
Assay in all cases: inhibition of tumour cell growth, NCI panel, 48 h
SNB-19 = test system: SNB-19
UO-31 = test system: UO-31
SK-MEL-5 = test system: SK-MEL-5
CCRF-CEM = test system: CCRF-CEM
A549 = test system: A549
M14 = test system: M14
NCI/ADR-RES = test system: NCI/ADR-RES
CAKI-1 = test system: CAKI-1
PC-3 = test system: PC-3
UACC-62 = test system: UACC-62
SF-295 = test system: SF-295
SR = test system: SR
MDA-MB-231 = test system: MDA-MB-231
HOP-62 = test system: HOP-62
MDA-N = test system: MDA-N
NCI-H522 = test system: NCI-H522
SK-MEL-28 = test system: SK-MEL-28
IGROV-1 = test system: IGROV-1
COLO 205 = test system: COLO 205

| SMILES | GI50 (SNB-19) | GI50 (UO-31) | GI50 (SK-MEL-5) | GI50 (CCRF-CEM) | GI50 (A549) | GI50 (M14) | GI50 (NCI/ADR-RES) | GI50 (CAKI-1) | GI50 (PC-3) | GI50 (UACC-62) | GI50 (SF-295) | GI50 (SR) | GI50 (MDA-MB-231) | GI50 (HOP-62) | GI50 (MDA-N) | GI50 (NCI-H522) | GI50 (SK-MEL-28) | GI50 (IGROV-1) | GI50 (COLO 205) |
| --- | --- | --- | --- | --- | --- | --- | --- | --- | --- | --- | --- | --- | --- | --- | --- | --- | --- | --- | --- |
| O=C(O)c1oc(C(=O)O)c(C(=O)O)c1C(=O)O | > 100 µM (inactive) | > 100 µM (inactive) | > 100 µM (inactive) | > 100 µM (inactive) | > 100 µM (inactive) | > 100 µM (inactive) | > 100 µM (inactive) | > 100 µM (inactive) | > 100 µM (inactive) | > 100 µM (inactive) | > 100 µM (inactive) | > 100 µM (inactive) | > 100 µM (inactive) | > 100 µM (inactive) | > 100 µM (inactive) | > 100 µM (inactive) | > 100 µM (inactive) | > 100 µM (inactive) |  |
| COc1ccc(-c2c(C#N)c(O)n(C3OC(CO)C(O)C(O)C3O)c(=S)c2C#N)cc1 (configuration not stated) | > 100 µM (inactive) | > 100 µM (inactive) | > 100 µM (inactive) | > 100 µM (inactive) | > 100 µM (inactive) | > 100 µM (inactive) | > 100 µM (inactive) | > 100 µM (inactive) | > 100 µM (inactive) | > 100 µM (inactive) | > 100 µM (inactive) | > 100 µM (inactive) | > 100 µM (inactive) | > 100 µM (inactive) | > 100 µM (inactive) | > 100 µM (inactive) | > 100 µM (inactive) | > 100 µM (inactive) |  |
| Cc1cccc(C)c1NC(=S)NC=C1C(=O)c2ccccc2C1=O | 18.2 µM (inactive) | 9.29 µM (inactive) | 7.91 µM (inactive) | 5.18 µM (inactive) | 6.78 µM (inactive) | 17.5 µM (inactive) | 16.8 µM (inactive) | 17.8 µM (inactive) | 3.76 µM (inactive) | 5.24 µM (inactive) | 4.67 µM (inactive) | 2.22 µM (inactive) | 19.5 µM (inactive) | 23.2 µM (inactive) | 9.14 µM (inactive) | 3.41 µM (inactive) | 15.3 µM (inactive) | 6.95 µM (inactive) | 3.52 µM (inactive) |
| Cc1cc(C)c2c(c1)CC1(Cc3c(ccc(C)c3C)C1=O)C2=O (configuration not stated) | > 100 µM (inactive) | > 100 µM (inactive) | > 100 µM (inactive) | > 100 µM (inactive) | > 100 µM (inactive) | > 100 µM (inactive) | > 100 µM (inactive) | > 100 µM (inactive) | > 100 µM (inactive) | > 100 µM (inactive) | > 100 µM (inactive) | > 100 µM (inactive) | > 100 µM (inactive) |  | > 100 µM (inactive) | > 100 µM (inactive) | > 100 µM (inactive) | > 100 µM (inactive) | > 10 µM (inactive) |
| O=[N+]([O-])c1cccnc1NCC1(CO)CC(Cc2ccccc2)C1 (configuration not stated) |  | 74 µM (inactive) | > 100 µM (inactive) | > 100 µM (inactive) | > 100 µM (inactive) |  | > 100 µM (inactive) | > 100 µM (inactive) | > 100 µM (inactive) | > 100 µM (inactive) | > 100 µM (inactive) | > 100 µM (inactive) | > 100 µM (inactive) | > 100 µM (inactive) | > 100 µM (inactive) | > 100 µM (inactive) | > 100 µM (inactive) | > 100 µM (inactive) | > 100 µM (inactive) |
| COc1ccc(C(=O)/C=C/c2cccnc2)cc1OC | 14.5 µM (inactive) | 13.5 µM (inactive) | 14.1 µM (inactive) | 3.51 µM (inactive) | 14.3 µM (inactive) | 13.4 µM (inactive) | 14.5 µM (inactive) | 4.44 µM (inactive) | 14.7 µM (inactive) | 14 µM (inactive) | 13.4 µM (inactive) | 1.54 µM (inactive) | 11.1 µM (inactive) | 14.9 µM (inactive) | 12.4 µM (inactive) | 1.83 µM (inactive) | 16.2 µM (inactive) | 9.64 µM (inactive) | 10.9 µM (inactive) |
| CCN(CC)CCOc1ccc(N2C(=O)c3cccc4cc([N+](=O)[O-])cc(c34)C2=O)cc1 | 12.8 µM (inactive) | 9.12 µM (inactive) | 12.1 µM (inactive) | 4.23 µM (inactive) | 0.977 µM (active) | 12.4 µM (inactive) | 16.8 µM (inactive) | 11.5 µM (inactive) | 6.73 µM (inactive) |  | 6.55 µM (inactive) | 0.372 µM (active) | 18.8 µM (inactive) | 1.14 µM (inactive) | 14.6 µM (inactive) | 4.75 µM (inactive) | 12.5 µM (inactive) | 7.08 µM (inactive) | 10 µM (inactive) |
| CCOC(=O)N/N=C(/N)c1cccc(Br)c1 | 78.9 µM (inactive) | 56.1 µM (inactive) | > 100 µM (inactive) | > 100 µM (inactive) | > 100 µM (inactive) | > 100 µM (inactive) | > 100 µM (inactive) | > 100 µM (inactive) | > 100 µM (inactive) | > 100 µM (inactive) | > 100 µM (inactive) | > 100 µM (inactive) | > 100 µM (inactive) | > 100 µM (inactive) | > 100 µM (inactive) | > 100 µM (inactive) |  | > 100 µM (inactive) | > 100 µM (inactive) |
| N#CCCCC[N+]12CN3CN(CN(C3)C1)C2 | > 100 µM (inactive) | > 100 µM (inactive) | > 100 µM (inactive) | 64 µM (inactive) | > 100 µM (inactive) | > 100 µM (inactive) | > 100 µM (inactive) | > 100 µM (inactive) | > 100 µM (inactive) | > 100 µM (inactive) | > 100 µM (inactive) | 30.8 µM (inactive) | > 100 µM (inactive) | > 100 µM (inactive) | > 100 µM (inactive) | > 100 µM (inactive) | > 100 µM (inactive) | > 100 µM (inactive) | > 100 µM (inactive) |
| O=c1[nH]nc(-c2ccccc2)n1O | > 100 µM (inactive) | > 100 µM (inactive) | > 100 µM (inactive) | > 100 µM (inactive) | > 100 µM (inactive) | > 100 µM (inactive) | > 100 µM (inactive) | > 100 µM (inactive) | > 100 µM (inactive) | > 100 µM (inactive) | > 100 µM (inactive) | > 100 µM (inactive) | > 100 µM (inactive) | > 100 µM (inactive) | > 100 µM (inactive) | > 100 µM (inactive) | > 100 µM (inactive) | > 100 µM (inactive) | > 100 µM (inactive) |
| NC(Cc1ccnnc1)C(=O)O (configuration not stated) | > 100 µM (inactive) | > 100 µM (inactive) | > 100 µM (inactive) | > 100 µM (inactive) | > 100 µM (inactive) | > 100 µM (inactive) | > 100 µM (inactive) | > 100 µM (inactive) | > 100 µM (inactive) | > 100 µM (inactive) | > 100 µM (inactive) | > 100 µM (inactive) | > 100 µM (inactive) | > 100 µM (inactive) | > 100 µM (inactive) | > 100 µM (inactive) | > 100 µM (inactive) | > 100 µM (inactive) | > 100 µM (inactive) |
| Nc1nc(Cl)c(C=O)c(NCC2(CO)CC(CCc3ccccc3)C2)n1 (configuration not stated) | 13.7 µM (inactive) | 1.48 µM (inactive) | 8.05 µM (inactive) | 7.85 µM (inactive) | 12.1 µM (inactive) | 2.54 µM (inactive) | 16.2 µM (inactive) | 1.55 µM (inactive) | 6.43 µM (inactive) | 5.38 µM (inactive) | 13.3 µM (inactive) | 1.87 µM (inactive) | 7.46 µM (inactive) | 14.5 µM (inactive) | 6.59 µM (inactive) | 1.71 µM (inactive) | 4 µM (inactive) | 1.74 µM (inactive) | 11.6 µM (inactive) |
| COc1cc(C)cc(C(=O)/C=C/c2ccccc2)c1O | 16 µM (inactive) | 17.8 µM (inactive) | 19.8 µM (inactive) | 27.7 µM (inactive) | 30.3 µM (inactive) | 16.6 µM (inactive) | 21.4 µM (inactive) | 19.5 µM (inactive) | 19.3 µM (inactive) | 17.1 µM (inactive) | 20.9 µM (inactive) | 30.9 µM (inactive) | 22.5 µM (inactive) | 16.7 µM (inactive) | 23.7 µM (inactive) | 17.9 µM (inactive) | 19.4 µM (inactive) | 12.6 µM (inactive) | 20 µM (inactive) |
| CC1=NC(=O)C(C)(c2ccccc2)N1CCc1ccccc1 (configuration not stated) | > 100 µM (inactive) | > 100 µM (inactive) | 27 µM (inactive) | 36.2 µM (inactive) | 27.3 µM (inactive) | > 100 µM (inactive) | 67.9 µM (inactive) | > 100 µM (inactive) | 44.7 µM (inactive) | 44 µM (inactive) | 38.5 µM (inactive) | 32 µM (inactive) | 67.6 µM (inactive) | > 100 µM (inactive) | 36.3 µM (inactive) | > 100 µM (inactive) |  | 57.8 µM (inactive) | 27.4 µM (inactive) |
| Cc1ccc([N+](=O)[O-])c2c(NCCC[N+](C)(C)[O-])ccnc12 | 89.5 µM (inactive) | 78.9 µM (inactive) | 12.2 µM (inactive) | 44.6 µM (inactive) | 33.2 µM (inactive) | 40.3 µM (inactive) | > 100 µM (inactive) | 53.6 µM (inactive) | 50.8 µM (inactive) | > 10 µM (inactive) | 28.8 µM (inactive) | 48.5 µM (inactive) | > 100 µM (inactive) | 29.3 µM (inactive) | > 100 µM (inactive) | 15 µM (inactive) | > 100 µM (inactive) | 20.6 µM (inactive) | 34 µM (inactive) |
